Laboratory results reported in US11572590B2, “Methods for evaluating tumor cell spheroids using 3D microfluidic cell culture device” (Dana-Farber Cancer Institute, Inc., priority 2017, dated 2023).
Like-named read-outs stand apart in the source and are kept apart here.

Columns and labels:
Experiment in all cases: SelectScreen Kinase Profiling, single point inhibition and IC50 for off-target kinases
Format in all cases: biochemical
[1] = molecular target: T1, off-target kinases (Homo sapiens, UniProt P42679); conditions: MATK (HYL), ZLYTE, ATP Km app
T1 sequence (P42679 1-507): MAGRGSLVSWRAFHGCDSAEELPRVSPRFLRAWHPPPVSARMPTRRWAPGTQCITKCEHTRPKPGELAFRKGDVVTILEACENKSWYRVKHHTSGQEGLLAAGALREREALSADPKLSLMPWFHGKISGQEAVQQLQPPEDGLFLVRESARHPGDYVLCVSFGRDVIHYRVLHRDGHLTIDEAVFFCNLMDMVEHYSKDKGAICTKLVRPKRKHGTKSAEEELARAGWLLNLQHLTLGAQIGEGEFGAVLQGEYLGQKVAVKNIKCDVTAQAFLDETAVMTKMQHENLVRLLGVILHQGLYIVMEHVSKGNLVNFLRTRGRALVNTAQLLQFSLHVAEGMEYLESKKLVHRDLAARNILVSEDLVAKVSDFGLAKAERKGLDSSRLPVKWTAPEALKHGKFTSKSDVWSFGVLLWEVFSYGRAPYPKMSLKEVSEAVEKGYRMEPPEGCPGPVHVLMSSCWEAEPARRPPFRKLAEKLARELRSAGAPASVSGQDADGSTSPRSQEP

[2] = molecular target: off-target kinases (Homo sapiens, UniProt Q8TDX7); conditions: NEK7, ZLYTE, ATP Km app
[3] = molecular target: T2, off-target kinases (Homo sapiens, UniProt Q9NRM7); conditions: LATS2, LanthaScreen Binding
T2 sequence (Q9NRM7 1-1088): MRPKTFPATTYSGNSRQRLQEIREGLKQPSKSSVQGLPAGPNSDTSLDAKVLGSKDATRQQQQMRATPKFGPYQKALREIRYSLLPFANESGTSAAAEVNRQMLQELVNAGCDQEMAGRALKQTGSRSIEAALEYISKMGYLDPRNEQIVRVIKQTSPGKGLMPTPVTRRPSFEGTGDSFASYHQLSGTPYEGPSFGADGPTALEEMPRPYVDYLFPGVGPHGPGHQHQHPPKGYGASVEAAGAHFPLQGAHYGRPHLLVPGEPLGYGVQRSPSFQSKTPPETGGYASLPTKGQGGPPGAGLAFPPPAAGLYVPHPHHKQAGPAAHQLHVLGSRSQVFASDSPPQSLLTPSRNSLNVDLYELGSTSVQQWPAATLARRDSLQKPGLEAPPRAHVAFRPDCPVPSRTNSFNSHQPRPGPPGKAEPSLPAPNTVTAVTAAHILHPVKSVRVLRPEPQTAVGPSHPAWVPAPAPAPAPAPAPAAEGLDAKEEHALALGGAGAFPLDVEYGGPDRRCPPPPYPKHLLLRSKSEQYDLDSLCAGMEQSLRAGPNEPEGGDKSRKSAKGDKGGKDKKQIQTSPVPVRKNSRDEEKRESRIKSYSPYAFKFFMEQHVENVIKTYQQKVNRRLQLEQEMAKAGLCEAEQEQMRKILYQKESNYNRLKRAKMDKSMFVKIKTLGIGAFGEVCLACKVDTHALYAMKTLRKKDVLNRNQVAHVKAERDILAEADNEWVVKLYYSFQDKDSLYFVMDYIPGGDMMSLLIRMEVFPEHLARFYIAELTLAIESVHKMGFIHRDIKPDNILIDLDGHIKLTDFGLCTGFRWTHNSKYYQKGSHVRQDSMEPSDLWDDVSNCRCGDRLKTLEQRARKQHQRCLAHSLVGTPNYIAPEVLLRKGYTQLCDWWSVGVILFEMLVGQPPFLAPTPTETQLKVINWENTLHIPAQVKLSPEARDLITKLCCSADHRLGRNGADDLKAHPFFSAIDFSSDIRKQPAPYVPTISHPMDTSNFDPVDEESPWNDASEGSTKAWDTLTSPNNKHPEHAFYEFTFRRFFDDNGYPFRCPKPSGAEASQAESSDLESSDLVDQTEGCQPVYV

off-target kinases (Homo sapiens, UniProt Q8TDX7), sequence (Q8TDX7 whole entry): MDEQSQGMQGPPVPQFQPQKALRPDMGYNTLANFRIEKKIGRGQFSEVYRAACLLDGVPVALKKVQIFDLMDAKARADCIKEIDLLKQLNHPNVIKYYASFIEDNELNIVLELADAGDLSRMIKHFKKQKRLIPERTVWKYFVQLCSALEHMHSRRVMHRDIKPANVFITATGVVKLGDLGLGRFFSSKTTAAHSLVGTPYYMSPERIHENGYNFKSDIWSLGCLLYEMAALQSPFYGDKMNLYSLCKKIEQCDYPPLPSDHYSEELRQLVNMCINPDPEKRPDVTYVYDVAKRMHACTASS

For `N#Cc1cc(-c2ncnc(Nc3ccc(N4CCN(C5COC5)CC4)cc3)n2)ccc1OC1CCOCC1` [Compound 1, 5-(4-((4-(4-(oxetan-3-yl)piperazin-1-yl)phenyl)amino)-1,3,5-triazin-2-yl)-2-((tetrahydro-2H-pyran-4-yl)oxy)benzonitrile], the inhibition ([1]; read-out: % Inhibition 1) was 1%, the inhibition ([1]; read-out: % Inhibition 2) was 2% and the inhibition ([1]; read-out: % Inhibition Avg) was 2%. It also gave an inhibition ([2]; read-out: % Inhibition 1) of 5%, an inhibition ([2]; read-out: % Inhibition 2) of 2% and an inhibition ([2]; read-out: % Inhibition Avg) of 3%. It also gave an inhibition ([3]; read-out: % Inhibition 1) of 23%, an inhibition ([3]; read-out: % Inhibition 2) of 25% and an inhibition ([3]; read-out: % Inhibition Avg) of 24%.
